We go through 45 compounds from patent US7855216B2, “Aza-indolyl compounds and methods of use” (Genentech, Inc., priority 2006, dated 2010).

Test [1] has as its system phospho-ERK in HCT116 and A375 cell lines. Briefly: Phospho-ERK cell-based assay. Particulars: Homo sapiens; in either cell line (HCT116 or A375); 2 h or 24 h exposure. As to the method: Compounds are tested in a cell-based phospho-ERK ELISA using the following cell lines:
(§1) Both cell lines are maintained in DMEM/F12 (1:1) media (Gibco) supplemented with 10% FCS at 37° C. in a 5% CO2 humidified incubator.
Cells are seeded in 96-well plates at 2,000 cells/well and after 24 h they are exposed to different concentrations of compounds in 0.83% DMSO. Cells are grown for a further 2 h or 24 h, fixed with formaldehyde (2% final) and permeabilised with methanol. Following blocking with TBST-3% BSA, fixed cells are incubated with primary antibody (anti-phospho ERK from rabbit) over-night at 4° C. Cells are incubated with Propidium Iodide (DNA fluorescent dye) and detection of cellular p-ERK is performed using an anti-rabbit secondary antibody conjugated to the fluorescent Alexa Fluor 488 dye (Molecular probes). The fluorescence is analysed using the Acumen Explorer (TTP Labtech), a laser-scanning microplate cytometer, and the Alexa Fluor 488 signal is normalised to the PI signal (proportional to cell number).
The EC50 is defined as the concentration at which a given compound achieves a signal half way between the baseline and the maximum response. EC50 values are calculated using the XLfit software package (version 2.0.5).

Test [2] deals with HCT116 and A375 cell lines. Briefly: Cell proliferation assay (CellTiter-Glo). It is filed as cell-based. The conditions noted are these: Homo sapiens; in either cell line (HCT116 or A375); 72 h exposure. As to the method: Compounds are tested in a cell proliferation assay using the following cell lines:
as §1
Cells are seeded in 96-well plates at 2,000 cells/well and after 24 hours they are exposed to different concentrations of compounds in 0.83% DMSO. Cells are grown for a further 72 h, and an equal volume of CellTiter-Glo reagent (Promega) is added to each well. This lyses the cells and generates a luminescent signal proportional to the amount of ATP released (and therefore proportional to the number of cells in the well) that can be detected using a multi-well luminometer.
The EC50 is defined as the concentration at which a given compound achieves 50% inhibition of control. IC50 values are calculated using the XLfit software package (version 2.0.5).

Turning to `CSc1ccc(Nc2c(C(=O)NOC(C)(C)CO)[nH]c3ccncc23)c(F)c1` [Example 59, 3-(2-Fluoro-4-methylsulfanyl-phenylamino)-1H-pyrrolo[3,2-c]pyridine-2-carboxylic acid (2-hydroxy-1,1-dimethyl-ethoxy)-amide semiformate], the EC50 in test [1] and in test [2] was < 10 µM throughout.

As to `N#Cc1ccc(Cn2c(C(=O)NOCCO)c(Nc3ccc(I)cc3F)c3cnccc32)s1` [Example 46], the EC50 in test [1] and in test [2] was < 10 µM throughout.

`O=C(NOCCO)c1c(Nc2ccc(I)cc2F)c2cnccc2n1Cc1ccc(C(F)(F)F)cc1` [Example 43]: the EC50 in test [1] and in test [2] was < 10 µM each time.

As to `O=C(NOCCO)c1c(Nc2ccc(I)cc2F)c2cnccc2n1Cc1ccncc1` [Example 25], the EC50 in test [1] and in test [2] was < 10 µM throughout.

For `O=C(NOCC1CC1)c1[nH]c2ccncc2c1Nc1ccc(I)cc1F` [Example 38], the EC50 in test [1] and in test [2] was < 10 µM in each case.

As to `CCn1c(C(=O)NOCCO)c(Nc2ccc(I)cc2F)c2cnccc21` [Example 11], the concentration for a half-maximal effect (EC50) in test [1] and in test [2] was < 10 µM throughout.

As to `O=C(NOCCO)c1c(Nc2ccc(I)cc2F)c2cnccc2n1Cc1cccnc1` [Example 26], the EC50 in test [1] and in test [2] was < 10 µM each time.

Turning to `Cn1c(C(=O)NOCC2CC2)c(Nc2ccc(I)cc2F)c2cnccc21` [Example 15], the EC50 in test [1] and in test [2] was < 10 µM throughout.

Consider `Cn1c(C(=O)NOCCO)c(Nc2ccc(I)cc2F)c2cncc(Cl)c21` [Example 39], for which the concentration giving a half-maximal response (EC50) in test [1] and in test [2] was < 10 µM in each case.

With `CS(=O)(=O)c1ccc(Cn2c(C(=O)NOCCO)c(Nc3ccc(I)cc3F)c3cnccc32)cc1` [Example 29], the 50% effective concentration (EC50) (as a rule, the concentration needed to bring the measured effect to its halfway point) in test [1] is < 10 µM.

For the compound `O=C(NOCCO)c1c(Nc2ccc(I)cc2F)c2cnccc2n1CC#CCO` [Example 65, 3-(2-Fluoro-4-iodo-phenylamino)-1-(4-hydroxy-but-2-ynyl)-1-H-pyrrolo[3,2-c]pyridine-2-carboxylic acid (2-hydroxy-ethoxy)-amide], the concentration for a half-maximal effect (EC50) in test [1] and in test [2] was < 10 µM throughout.

Regarding `N#Cc1ccc(Cn2c(C(=O)NOCCO)c(Nc3ccc(I)cc3F)c3cnccc32)cc1` [Example 44], the 50% effective concentration (EC50) in test [1] and in test [2] was < 10 µM each time.

Regarding `CSc1ccc(Nc2c(C(=O)NOC[C@H](C)O)n(C)c3ccncc23)c(F)c1` [Example 58], the EC50 in test [1] and in test [2] was < 10 µM throughout.

As for `O=C(NOCCO)c1c(Nc2ccc(I)cc2F)c2cnccc2n1Cc1ccccc1` [Example 24], the EC50 in test [1] and in test [2] was < 10 µM in each case.

For the compound `O=C(NOCCO)c1[nH]c2ccncc2c1Nc1ccc(I)cc1F` [Example 10], the EC50 in test [1] and in test [2] was < 10 µM in each case.

For the compound `Cn1c(C(=O)NO)c(Nc2ccc(I)cc2F)c2cnccc21` [Example 13], the EC50 in test [1] and in test [2] was < 10 µM each time.

In the case of `N#Cc1cccc(Cn2c(C(=O)NOCCO)c(Nc3ccc(I)cc3F)c3cnccc32)c1` [Example 48], the concentration for a half-maximal effect (EC50) in test [1] and in test [2] was < 10 µM throughout.

For `Cn1c(C(=O)NOCCO)c(Nc2ccc(I)cc2F)c2cncc(F)c21` [Example 37], the EC50 in test [1] and in test [2] was < 10 µM in each case.

In the case of `Cn1c(C(=O)NOC[C@H](O)CO)c(Nc2ccc(I)cc2F)c2cnccc21` [Example 5, 3-(2-Fluoro-4-iodo-phenylamino)-1-methyl-1H-pyrrolo[3,2-c]pyridine-2-carboxylic acid ((R)-2,3-dihydroxy-propoxy)-amide], the EC50 in test [1] and in test [2] was < 10 µM each time.

Regarding `Cn1c(C(=O)NOCCO)c(Nc2ccc(I)cc2F)c2cnccc21` [Example 6, 3-(2-Fluoro-4-iodo-phenylamino)-1-methyl-1H-pyrrolo[3,2-c]pyridine-2-carboxylic acid (2-hydroxy-ethoxy)-amide], the concentration for a half-maximal effect (EC50) in test [1] and in test [2] was < 10 µM each time.

`O=C(NOCCO)c1[nH]c2c(F)cncc2c1Nc1ccc(I)cc1F` [Example 49]: the EC50 in test [1] and in test [2] was < 10 µM in each case.

On to `CSc1ccc(Nc2c(C(=O)NOCCO)n(C)c3ccncc23)c(F)c1` [Example 56], for which the concentration giving a half-maximal response (EC50) in test [1] and in test [2] was < 10 µM each time.

On to `O=C(NOCCO)c1[nH]c2c(Cl)cncc2c1Nc1ccc(I)cc1F` [Example 34], for which, in test [1], the EC50 is < 10 µM.

With `CN(C)C(=O)c1cccc(Cn2c(C(=O)NOCCO)c(Nc3ccc(I)cc3F)c3cnccc32)c1` [Example 45], the EC50 in test [1] and in test [2] was < 10 µM each time.

Take `C#CCn1c(C(=O)NOCCO)c(Nc2ccc(I)cc2F)c2cnccc21` [Example 64, 3-(2-Fluoro-4-iodo-phenylamino)-1-prop-2-ynyl-1H-pyrrolo[3,2-c]pyridine-2-carboxylic acid (2-hydroxy-ethoxy)-amide]: the EC50 in test [1] and in test [2] was < 10 µM in each case.

`CN(C)C(=O)c1ccc(Cn2c(C(=O)NOCCO)c(Nc3ccc(I)cc3F)c3cnccc32)cc1` [Example 42]: the EC50 in test [2] was < 10 µM.

`CN(C)S(=O)(=O)c1ccc(Cn2c(C(=O)NOCCO)c(Nc3ccc(I)cc3F)c3cnccc32)cc1` [Example 50]: the half-maximal effective concentration (EC50) in test [1] was < 10 µM.

Turning to `O=C(NOCCO)c1c(Nc2ccc(I)cc2F)c2cnccc2n1CCc1ccccc1` [Example 31], the 50% effective concentration (EC50) in test [1] and in test [2] was < 10 µM in each case.

Take `CN(C)C(=O)c1ccc(Cn2c(C(=O)NOCCO)c(Nc3ccc(I)cc3F)c3cnccc32)cc1` [Example 30]: in test [1], the 50% effective concentration (EC50) is < 10 µM.

Consider `O=C(NOCCO)c1c(Nc2ccc(I)cc2F)c2cnccc2n1CCCO` [Example 41], for which the concentration giving a half-maximal response (EC50) in test [1] and in test [2] was < 10 µM in each case.

With `COc1ccc(Cn2c(C(=O)NOCCO)c(Nc3ccc(I)cc3F)c3cnccc32)cc1` [Example 8], the half-maximal effective concentration (EC50) in test [1] and in test [2] was < 10 µM in each case.

`O=C(NOCC(O)CO)c1c(Nc2ccc(I)cc2F)c2cnccc2n1C1CC1` (stereo not shown) [Example 63, 1-Cyclopropyl-3-(2-fluoro-4-iodo-phenylamino)-1H-pyrrolo[3,2-c]pyridine-2-carboxylic acid (2,3-dihydroxy-propoxy)-amide]: the EC50 in test [1] and in test [2] was < 10 µM each time.

In the case of `O=C(NOCCO)c1c(Nc2ccc(I)cc2F)c2cnccc2n1C1CC1` [Example 61, 1-Cyclopropyl-3-(2-fluoro-4-iodo-phenylamino)-1H-pyrrolo[3,2-c]pyridine-2-carboxylic acid (2-hydroxy-ethoxy)-amide], the 50% effective concentration (EC50) in test [1] and in test [2] was < 10 µM each time.

For `COc1ccc(Cn2c(C(N)=O)c(Nc3ccc(I)cc3F)c3cnccc32)cc1` [Example 17], in test [1], the 50% effective concentration (EC50) is < 10 µM.

As for `O=C(NOCCO)c1c(Nc2ccc(I)cc2F)c2cnccc2n1Cc1ccccc1F` [Example 27], the EC50 in test [1] and in test [2] was < 10 µM in each case.

As to `CN(C)S(=O)(=O)c1cccc(Cn2c(C(=O)NOCCO)c(Nc3ccc(I)cc3F)c3cnccc32)c1` [Example 47], the half-maximal effective concentration (EC50) in test [1] and in test [2] was < 10 µM throughout.

As to `O=C(NOCCO)c1c(Nc2ccc(I)cc2F)c2cnccc2n1CC1CC1` [Example 23], the 50% effective concentration (EC50) in test [1] and in test [2] was < 10 µM each time.

In the case of `O=C(NOCCO)c1c(Nc2ccc(I)cc2F)c2cnccc2n1Cc1ccc(F)cc1` [Example 33], the EC50 in test [1] and in test [2] was < 10 µM each time.

Turning to `COCCn1c(C(=O)NOCCO)c(Nc2ccc(I)cc2F)c2cnccc21` [Example 7], the EC50 in test [1] and in test [2] was < 10 µM throughout.

As for `O=C(NOCCO)c1c(Nc2ccc(I)cc2F)c2cnccc2n1Cc1cccc(C(F)(F)F)c1` [Example 28], in test [1], the EC50 was < 10 µM.

`CC(C)(C)ONC(=O)c1[nH]c2ccncc2c1Nc1ccc(I)cc1F` [Example 40]: the concentration for a half-maximal effect (EC50) in test [1] and in test [2] was < 10 µM each time.

In the case of `Cn1c(C(N)=O)c(Nc2ccc(I)cc2F)c2cnccc21` [Example 16], the EC50 in test [1] and in test [2] was < 10 µM in each case.

Regarding `C[C@H](O)CONC(=O)c1c(Nc2ccc(I)cc2F)c2cncc(F)c2n1C` [Example 54], the concentration giving a half-maximal response (EC50) in test [1] and in test [2] was < 10 µM each time.

For the compound `CSc1ccc(Nc2c(C(=O)NOCCO)n(C3CC3)c3ccncc23)c(F)c1` [Example 62, 1-Cyclopropyl-3-(2-fluoro-4-methylsulfanyl-phenylamino)-1H-pyrrolo[3,2-c]pyridine-2-carboxylic acid (2-hydroxy-ethoxy)-amide], the half-maximal effective concentration (EC50) in test [1] is < 10 µM.

As for `CSc1ccc(Nc2c(C(=O)NOC(C)(C)CO)n(C)c3ccncc23)c(F)c1` [Example 57], the EC50 in test [1] and in test [2] was < 10 µM in each case.
